# Measured values from the NIST ThermoML archive (doi:10.1016/j.jct.2013.09.026).
# Numbers after ± are expanded uncertainties.
# Conditions: 298.15 K; 101.33 kPa; Liquid; Vibrating tube method
row,mass density [kg/m3],Structure (SMILES)
1,722.814 ± 0.19,CCN(CC)CC [triethylamine]
2,799.656 ± 0.17,CCCO [propan-1-ol]

row,Structure (SMILES),mass density [kg/m3]
1,CCC(C)=O [butanone],799.969 ± 0.17
